1 compound from US10955409B2, “Method for the identification of sensory neuron subtypes in ex vivo preparations” (AnaBios Corporation, priority 2017, dated 2021) can be followed below.

This assay deals with Aδ- and C-type neurons (human DRG neurons). Nature of the assay: Electric field stimulation (EFS) live cell calcium imaging of human DRG neurons. The settings on record: high voltage 15V/cm supra-threshold stimulation. It counts as cell-based.

Description: DRGs from the first thoracic vertebra (T1) through the first sacral vertebra (S1) were used in the present study. Human DRG neurons where isolated from organ donors for which full legal and ethical consent had been obtained. The DRGs were stripped of connective tissue and enzymatically digested at 37° C. for 2 h using AnaBios' proprietary enzyme mixture. Samples were then centrifuged for 2 min at 200×g, supernatant was gently removed, and tissue was washed 4 times, followed by resuspension in DMEM/F12 (Lonza) containing 1% horse serum (Thermo Fisher Scientific). Ganglia were mechanically dissociated by gentle trituration through the fire-polished tip of a sterile glass Pasteur pipette. […] Cells were maintained in culture at 37° C. with 5% CO2 in DMEM/F12 supplemented with 10% horse serum (Thermo Fisher Scientific), 2 mM glutamine, 25 ng/mL hNGF (Cell Signaling Technology, Danvers, Mass.), 25 ng/mL GDNF (Peprotech), and penicillin/streptomycin (Thermo Fisher Scientific). Half of the culture media was replaced with fresh media every 3 days.
Cells were loaded with 3 M Fluo-8-AM (AAT Bioquest) containing 0.1% Pluronic F-127 (Sigma) for 20 min. at room temperature. Extracellular solution contained in (mM): 145 NaCl, 3 KCl, 2 CaCl2), 1 MgCl2, 10 HEPES, 10 glucose adjusted to pH 7.4 with NaOH. […]

In the case of `CCN(CC)CC(=O)Nc1c(C)cccc1C` [lidocaine], the “sensitivity of the maximal response to EFS to lidocaine” value was “exhibited sensitivity”.
